Data set [1] has as its system HCV replicon (Huh-Luc cells, NS3-NS5B regions of HCV type 1b). Briefly: HCV replicon assay (Huh-7 luc/neo, luciferase readout). Format: cell-based. As to conditions: Hepatitis C virus, Huh-7, 72 h, Huh-Luc replicon cells, three days incubation, luciferase activity; average if tested more than once; read-out: HCV-REP-HUH7LUC_EC50. From the text:
The in vitro antiviral activity against HCV of the compounds of formula I can be tested in a cellular HCV replicon system based on Lohmann et al. (1999) Science 285:110-113, with the further modifications described by Krieger et al. (2001) Journal of Virology 75: 4614-4624 (incorporated herein by reference), which is further exemplified in the examples section. This model, while not a complete infection model for HCV, is widely accepted as the most robust and efficient model of autonomous HCV RNA replication currently available. It will be appreciated that it is important to distinguish between compounds that specifically interfere with HCV functions from those that exert cytotoxic or cytostatic effects in the HCV replicon model, and as a consequence cause a decrease in HCV RNA or linked reporter enzyme concentration. Assays are known in the field for the evaluation of cellular cytotoxicity based for example on the activity of mitochondrial enzymes using fluorogenic redox dyes such as resazurin. Furthermore, cellular counter screens exist for the evaluation of non-selective inhibition of linked reporter gene activity, such as firefly luciferase. Appropriate cell types can be equipped by stable transfection with a luciferase reporter gene whose expression is dependent on a constitutively active gene promoter, and such cells can be used as a counter-screen to eliminate non-selective inhibitors.
The compounds of formula (I) were examined for inhibitory activity in the HCV replicon. This cellular assay is based on a bicistronic expression construct, as described by Lohmann et al. (1999) Science vol. 285 pp. 110-113 with modifications described by Krieger et al. (2001) Journal of Virology 75: 4614-4624, in a multi-target screening strategy.
The assay utilized the stably transfected cell line Huh-7 luc/neo (hereafter referred to as Huh-Luc). This cell line harbors an RNA encoding a bicistronic expression construct comprising the wild type NS3-NS5B regions of HCV type 1b translated from an
Internal Ribosome Entry Site (IRES) from encephalomyocarditis virus (EMCV), preceded by a reporter portion (FfL-luciferase), and a selectable marker portion (neo^R, neomycine phosphotransferase). The construct is flanked by 5′ and 3′ NTRs (non-translated regions) from HCV type 1b. Continued culture of the replicon cells in the presence of G418 (neo^R) is dependent on the replication of the HCV RNA. The stably transfected replicon cells that express HCV RNA, which replicates autonomously and to high levels, encoding inter alia luciferase, were used for screening the antiviral compounds.
The replicon cells were plated in 384 well plates in the presence of the test and control compounds which were added in various concentrations. Following an incubation of three days, HCV replication was measured by assaying luciferase activity (using standard luciferase assay substrates and reagents and a Perkin Elmer ViewLux™ ultraHTS microplate imager). Replicon cells in the control cultures have high luciferase expression in the absence of any inhibitor. The inhibitory activity of the compound on luciferase activity was monitored on the Huh-Luc cells, enabling a dose-response curve for each test compound. EC50 values were then calculated, which represent the amount of compound required to decrease the level of detected luciferase activity by 50%, or more specifically, to reduce the ability of the genetically linked HCV replicon RNA to replicate.
Where a compound of formula (I) was tested more than once in the replicon assay, the average of all test results is given in this Table 1.
On the technique in general: In antiviral work, replicon cells carry a viral genome segment that copies itself.

Another data set relates to LLC-MDR1 monolayers. It counts as in vitro ADME. Conditions: pig, LLC-PK1, 120 min. On the procedure: Assay Description for the Measurement of Transepithelial Transport of Test Compounds Through LLC-MDR1 Monolayers
The integrity of the cellular monolayer was assessed in each incubation well through the inclusion of the fluorescent, low permeability marker compound, Fluorescein.
In detail, LLC-MDR1 cells (LLC-PK1 cells stably transduced with MDR1 in a trans-well system) were seeded on 24-well cell culture inserts (Millicell®-PCF, 0.4 μm, 13 mm Ø, 0.7 cm^2) at 400 000 cells/cm^2. Cell culture medium consists of Medium 199 supplemented with 10% Fetal Bovine Serum (FBS) and 100 U/mL Penicillin/streptomycin and was replaced the day after seeding and the day before the experiment. The transport experiment was performed 5 days after seeding. On the day of the experiment, solutions of the test compounds were applied to the apical side of the monolayers to assess transport in the AtoB direction,. The medium used in the assay was (OPTI-MEM (1×) (GIBCO) with 1 w/v % Bovine Serum Albumin. Inserts were incubated at 37° C. in a humidified incubator containing 5% CO2. Samples from the acceptor and donor compartments were collected after an incubation time of 120 min, to assess the permeability and to allow estimation of the test compound recovery during the experiment, respectively. Transport experiments were performed in triplicate. Absolute test compound concentrations were measured using LC-MS/MS and quantified via a calibration curve.

As for `COC(=O)N[C@H](C(=O)N1CCC[C@H]1c1ncc(-c2ccc3cc(-c4ccc5c(c4)NC([C@@H]4CCCN4C(=O)[C@H](NC(=O)OC)c4ccccc4)=NS5(=O)=O)ccc3c2)[nH]1)C(C)C` [Compound 87], the EC50 in data set [1] stood at 8 pM. For the same molecule, the “A->B permeability (Papp × 10^−6 cm/sec) in the presence the P-gp inhibitor GF120918” value with LLC-MDR1 monolayers is 1.0 10^−6 cm/sec.
Take `COC(=O)N[C@H](C(=O)N1CCC[C@H]1C1=Nc2cc(-c3ccc4cc(-c5cnc([C@@H]6CCCN6C(=O)[C@@H](NC(=O)OC)C(C)C)[nH]5)ccc4c3)ccc2C(C)(C)N1)C(C)C` [Compound 61]: in data set [1], the EC50 was 17 pM. For the same molecule, the “A->B permeability (Papp × 10^−6 cm/sec) in the presence the P-gp inhibitor GF120918” value in the data set on LLC-MDR1 monolayers is on record as 4.8 10^−6 cm/sec.
With `COC(=O)N[C@H](C(=O)N1CCC[C@H]1c1ncc(-c2ccc3cc(-c4ccc5c(=O)[nH]c([C@@H]6CC(C)(C)CN6C(=O)[C@@H](NC(=O)OC)C(C)C)nc5c4)ccc3c2)[nH]1)C(C)C` [Compound 50], the EC50 in data set [1] is 6 pM. Moreover, the “A->B permeability (Papp × 10^−6 cm/sec) in the presence the P-gp inhibitor GF120918” value in the data set with LLC-MDR1 monolayers was 5.8 10^−6 cm/sec.
For the molecule `COC(=O)N[C@H](C(=O)N1CCC[C@H]1c1ncc(-c2ccc3cc(-c4ccc5c(=O)[nH]c([C@@H]6CCCN6C(=O)[C@H](NC(=O)OC)c6ccccc6)nc5c4)ccc3c2)[nH]1)C(C)C` [Compound 44-2], the EC50 in data set [1] worked out at 84 pM. Also, the “A->B permeability (Papp × 10^−6 cm/sec) in the presence the P-gp inhibitor GF120918” value in the data set on LLC-MDR1 monolayers is on record as 5.5 10^−6 cm/sec.

The record behind these values is US8815849B2, “Hetero-bicyclic derivatives as HCV inhibitors” (Janssen R&D Ireland, priority 2010, dated 2014).
